Patent publication US9029563B2, “Substituted 1-benzylindolin-2-one analogs as positive allosteric modulators of muscarinic acetylcholine M1 receptors” (Vanderbilt University, priority 2012, dated 2015)

Biological target: T1, mAChR M1 (UniProt P08482)
T1 sequence (P08482 1-460): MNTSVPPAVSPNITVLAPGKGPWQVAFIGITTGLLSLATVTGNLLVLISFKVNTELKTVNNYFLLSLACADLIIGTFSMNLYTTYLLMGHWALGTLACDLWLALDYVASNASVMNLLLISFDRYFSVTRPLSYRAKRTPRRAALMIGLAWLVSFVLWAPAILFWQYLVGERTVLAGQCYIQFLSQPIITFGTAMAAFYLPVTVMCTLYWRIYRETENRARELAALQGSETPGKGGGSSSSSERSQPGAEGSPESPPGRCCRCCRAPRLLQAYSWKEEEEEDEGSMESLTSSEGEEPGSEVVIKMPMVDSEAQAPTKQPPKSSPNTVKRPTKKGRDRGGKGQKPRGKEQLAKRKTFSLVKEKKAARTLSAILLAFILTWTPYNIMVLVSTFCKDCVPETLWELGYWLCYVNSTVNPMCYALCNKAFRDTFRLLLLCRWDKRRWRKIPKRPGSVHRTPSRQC
Test: mAChR M1 cell-based functional assay (calcium mobilization, PAM mode)
Conditions: for Emax: Percent of AChmax activity in presence of 30 μM test compound; for EC50: potentiation of EC20 acetylcholine response, calcium flux in CHO-K1 cells expressing mAChR M1, >10 μM is estimated for low potency compounds without plateau
Excerpt: Chinese hamster ovary (CHO-K1) cells stably expressing rat (r)M1 were purchased from the American Type Culture Collection and cultured according to their indicated protocol. CHO cells stably expressing human (h)M2, hM3, and hM5 were described previously (Levey et al., 1991); hM1 and hM4 cDNAs were purchased from Missouri S&T cDNA Resource; rM4 cDNA was provided by T. I. Bonner (National Institutes of Health, Bethesda, Md.). rM2 and rM3 were cloned from a rat brain cDNA library and sequence verified. hM1, rM2, rM3, hM4, and rM4 cDNAs were used to stably transfect CHO-K1 cells purchased from the American Type Culture Collection using Lipofectamine-2000. To make stable rM2, hM2, hM4, and rM4 cell lines for use in calcium mobilization assays, these cells also were stably transfected with a chimeric G-protein (Gqi5) (provided by B.R. Conklin, University of California, San Francisco) using Lipofectamine 2000. rM1, hM1, rM3, hM3, rM5, and hM5 cells were grown in Ham's F-12 medium containing 10% heat-inactivated fetal bovine serum (FBS), 20 mM HEPES, and 50 μg/mL G418 sulfate. rM2-Gqi5, hM2-Gqi5, and hM4-Gqi5 cells were grown in the same medium also containing 500 μg/mL Hygromycin B. Stable rM4-Gqi5 cells were grown in DMEM containing 10% heat-inactivated FBS, 20 mM HEPES, 400 μg/mL G418 sulfate, and 500 μg/mL Hygromycin B.
For high throughput measurement of agonist-evoked increases in intracellular calcium, CHO-K1 cells stably expressing muscarinic receptors were plated in growth medium lacking G418 and hygromycin at 15,000 cells/20 μL/well in Greiner 384-well black-walled, tissue culture (TC)-treated, clear-bottom plates (VWR). Cells were incubated overnight at 37° C. and 5% CO2. The next day, cells were washed using an ELX 405 (BioTek) with four washes (80 μL) of assay buffer then aspirated to 20 μL. Next, 20 μL of 16 μM Fluo-4/acetoxymethyl ester (Invitrogen, Carlsbad, Calif.) prepared as a 2.3 mM stock in DMSO and mixed in a 1:1 ratio with 10% (w/v) Pluronic F-127 and diluted in assay buffer was added to the wells and the cell plates were incubated for 50 min at 37° C. and 5% CO2. Dye was removed by washing with the ELX 405 (four 80 μL washes of assay buffer) then aspirated to 20 μL. Compound master plates were formatted in an 11 point CRC format (1:3 dilutions) in 100% DMSO with a starting concentration of 10 mM using the BRAVO liquid handler (Agilent). Test compound CRCs were then transferred to daughter plates (240 nL) using the Echo acoustic plate reformatter (Labcyte, Sunnyvale, Calif.) and then diluted into assay buffer (40 μL) to a 2× stock using a Thermo Fisher Combi (Thermo Fisher Scientific, Waltham, Mass.).
Calcium flux was measured using the Functional Drug Screening System (FDSS) 6000 (Hamamatsu Corporation, Tokyo, Japan) as an increase in the fluorescent static ratio. Compounds were applied to cells (20 μL, 2×) using the automated system of the FDSS 6000 at 4 s into the 300 s protocol and the data were collected at 1 Hz. At 144 s into the 300 s protocol, 10 μL of an EC20 concentration of the muscarinic receptor agonist acetylcholine was added (5×), followed by the addition of 12 μL an EC80 concentration of acetylcholine at the 230 s time point (5×). Agonist activity was analyzed as a concentration-dependent increase in calcium mobilization upon compound addition. Positive allosteric modulator activity was analyzed as a concentration-dependent increase in the EC20 acetylcholine response. Antagonist activity was analyzed as a concentration-dependent decrease in the EC80 acetylcholine response. Concentration-response curves were generated using a four-parameter logistical equation in XLFit curve fitting software (IDBS, Bridgewater, N.J.) for Excel (Microsoft, Redmond, Wash.) or Prism (GraphPad Software, Inc., San Diego, Calif.).
The calcium mobilization assay was also used to determine “efficacy”. […]

Row | Structure (SMILES) | Emax [%] | EC50 [µM]
1 | Cn1cc(-c2ccc(CN3C(=O)C(O)(C(F)(F)F)c4ccccc43)c(F)c2)cn1 (stereo not shown) [Compound B6, 1-(2-fluoro-4-(1-methyl-1H-pyrazol-4-yl)benzyl)-3-hydroxy-3-(trifluoromethyl)indolin-2-one] | 60 | 5
2 | Cn1cc(-c2ccc(CN3C(=O)C(O)(C(F)(F)F)c4ccccc43)cc2F)cn1 (stereo not shown) [Compound B11] | 45 | > 10
3 | Cn1cc(-c2ccc(CN3C(=O)C(C)(O)c4ccccc43)c(F)c2)cn1 (stereo not shown) [Compound B8, 1-(2-fluoro-4-(1-methyl-1H-pyrazol-4-yl)benzyl)-3-hydroxy-3-methylindolin-2-one] | 52 | > 10
4 | Cn1cc(-c2ccc(CN3C(=O)C(C)(N)c4ccccc43)cc2)cn1 (racemic) [Compound B15, 3-amino-3-methyl-1-(4-(1-methyl-1H-pyrazol-4-yl)benzyl)indolin-2-one] | 28 | > 10
5 | Cn1cc(-c2ccc(CN3C(=O)C(O)(C(F)(F)F)c4ccccc43)cc2F)cn1 (stereo not shown) [Compound B21] | 38 | > 10
6 | Cc1n[nH]cc1-c1ccc(CN2C(=O)C(O)(C(F)(F)F)c3ccccc32)c(F)c1 (stereo not shown) [Compound B5] | 37 | 4.9
7 | CC1C(=O)N(Cc2ccc(-c3cnn(C)c3)cc2F)c2ccccc21 (stereo not shown) [Compound B9] | 55 | > 10
8 | Cn1cc(-c2ccc(CN3C(=O)Cc4ccccc43)c(F)c2)cn1 [Compound B1] | 75 | 2.6
9 | Cn1cc(-c2ccc(CN3C(=O)C(O)(C(F)(F)F)c4ccccc43)c(F)c2)cn1 (single isomer, unassigned) [Compound B2, 1-(2-fluoro-4-(1-methyl-1H-pyrazol-4-yl)benzyl)-3-hydroxy-3-(trifluoromethyl)indolin-2-one] | 68 | 3.4
10 | Cn1cc(-c2ccc(CN3C(=O)C(O)(C(F)(F)F)c4ccccc43)c(F)c2)cn1 (single isomer, unassigned) [Compound B18, 1-(2-fluoro-4-(1-methyl-1H-pyrazol-4-yl)benzyl)-3-hydroxy-3-(trifluoromethyl)indolin-2-one] | – | > 30
11 | Cn1cc(-c2ccc(CN3C(=O)C(O)(C(F)(F)F)c4ccccc43)c(Cl)c2)cn1 (stereo not shown) [Compound B10, 1-(2-chloro-4-(1-methyl-1H-pyrazol-4-yl)benzyl)-3-hydroxy-3-(trifluoromethyl)indolin-2-one] | 41 | > 10
12 | CC(c1ccc(-c2cnn(C)c2)cc1F)N1C(=O)Cc2ccccc21 (stereo not shown) [Compound B24] | 44 | > 10
13 | Cn1cc(-c2ccc(CN3C(=O)C(O)(C(F)(F)F)c4ccccc43)cn2)cn1 (stereo not shown) [Compound B17] | 54 | > 10
14 | Cn1cc(-c2ccc(CN3C(=O)C(O)(C(F)(F)F)c4ccccc43)cc2)cn1 (stereo not shown) [Compound B12] | 63 | > 10
15 | CCn1cc(-c2ccc(CN3C(=O)C(O)(C(F)(F)F)c4ccccc43)c(F)c2)cn1 (stereo not shown) [Compound B14] | 45 | > 10
16 | Cn1cc(-c2ccc(CN3C(=O)C(O)(C(F)(F)F)c4cc(F)ccc43)c(F)c2)cn1 (stereo not shown) [Compound B3] | 35 | 3.9
17 | Cn1cc(-c2ccc(CN3C(=O)C(O)(C(F)(F)F)c4ccccc43)c(F)c2)cn1 (stereo not shown) [Compound B19] | 54 | 3.64
18 | Cn1cc(-c2ccc(CN3C(=O)C(N)c4ccccc43)c(F)c2)cn1 (stereo not shown) [Compound B20] | 46 | 1.36
19 | CCCn1cc(-c2ccc(CN3C(=O)C(O)(C(F)(F)F)c4ccccc43)c(F)c2)cn1 (stereo not shown) [Compound B16] | 31 | > 10
20 | Cn1cc(-c2ccc(CN3C(=O)C(O)(CF)c4ccccc43)c(F)c2)cn1 (stereo not shown) [Compound B4, 1-(2-fluoro-4-(1-methyl-1H-pyrazol-4-yl)benzyl)-3-(fluoromethyl)-3-hydroxyindolin-2-one] | 52 | 4.6
21 | CC(C)n1cc(-c2ccc(CN3C(=O)C(O)(C(F)(F)F)c4ccccc43)c(F)c2)cn1 (stereo not shown) [Compound B13] | 38 | > 10
22 | CN(C)C1(C)C(=O)N(Cc2ccc(-c3cnn(C)c3)cc2)c2ccccc21 (racemic) [Compound B7, 3-(dimethylamino)-3-methyl-1-(4-(1-methyl-1H-pyrazol-4-yl)benzyl)indolin-2-one] | 43 | 5.5
